According to patent US20130324493A1, “COMPOSITIONS COMPRISING NINGNANMYCIN AND USES THEREFOR” (North Carolina State University, priority 2012, published 2013):
Values after ≈ are worked out from the molar mass of the structure shown. Like-named read-outs stand apart in the source and are kept apart here.

Columns and labels:
Sclerotinia homoeocarpa = assay: In vitro sensitivity assay (radial growth on fungicide-amended PDA); format: cell-based; settings: Clarireedia homoeocarpa
Procedure: (§1) Three isolates of S. homoeocarpa and two isolates of C. cereale were selected to evaluate ningnanmycin (Ningnanmycin 10WP, Deqiang Biological Co., LTD. Harbin, Helongjiang, China) in vitro activities using 5 three-fold dilutions from 0.81 to 0.01 μg a.i./ml. […] Based on preliminary experiments, five dilutions of triticonazole were used, ranging from 0.81 to 0.01 μg a.i/ml for isolates of S. homoeocarpa and from 6.25 to 0.01 μg a.i./ml for isolates of C. cereale. All isolates were prepared for long-term storage on pieces of dried filter paper maintained at −80° C. Filter paper sections containing each isolate were removed from −80° C. storage and placed on PDA amended with 0.05 μg/ml each of chloramphenicol, streptomycin, and tetracycline (PDA+++). After 3 days, mycelium-containing plugs (1×1 cm) were transferred to water agar for another 2 days. Then, water agar plugs (0.45 cm diameter) were cut from the periphery of the colony using a cork borer and placed on the center of Petri dishes containing non-amended PDA and PDA amended with the serial concentrations of each fungicide with three replicates per isolate. Radial growth was measured after three days (72 h) incubation at room temperature for isolates of S. homoeocarpa and seven days for isolates of C. cereale. Relative Growth (RG) was calculated by dividing colony diameter on amended PDA by that on the non-amended PDA. EC50 values were then calculated using the method described by Secor et al. (Fungicide resistance assays for fungal plant pathogens. Methods Mol Biol. 835:385-392, 2012). The in vitro sensitivity assay repeated twice and EC50 value of each isolates was determined as the mean of EC50 values from two assays.

Colletotrichum cereale = assay: as above; format: cell-based
Procedure: as §1

rat [1] = settings: cited from earlier work
earthworms = settings: cited from earlier work
anthracnose (C. cereale) = assay: Field efficacy test, control of anthracnose on putting green turf; format: in vivo, 'Dominant Plus' creeping bentgrass; settings: for Turf quality: 1-to-9 scale (9 = best), anthracnose trial; for anthracnose control (in words): 2010, August
P. aphanidermatum = assay: In vitro activity on turfgrass strains; format: cell-based, Pythium aphanidermatum
Acidovorax aveane = assay: Preliminary in vitro antibacterial study; format: cell-based; settings: ningnanmycin at 100 ug/ml
guinea pig = settings: cited from earlier work
rabbit [2] = settings: cited from earlier work
green algae = settings: green algae, 72 h; cited from earlier work
honey bee = settings: cited from earlier work
[3] = test system: brown patch (Rhizoctonia solani AG2-2IIIB); assay: Preliminary field experiment, brown patch; format: in vivo; settings: creeping bentgrass
Pantoea ananatis = assay: Preliminary in vitro antibacterial study; format: cell-based; settings: ningnanmycin at 100 ug/ml
mammals = settings: Hu et al. 1997; cited from earlier work
Fish = settings: species not given; cited from earlier work
X. translucent = assay: Preliminary in vitro antibacterial study; format: cell-based
[4] = test system: Rhizoctonia solani (AG2-2IIIB); assay: In vitro activity; format: cell-based; settings: AG2-2IIIB causing brown patch on creeping bentgrass
[5] = test system: Magnaporthe poae (summer patch); format: cell-based; settings: preliminary experiment
rat [6] = settings: cited from earlier work; remark: listed apart in the source
rabbit [7] = settings: cited from earlier work; remark: listed apart in the source
Xanthomonas pruni = assay: Preliminary in vitro antibacterial study; format: cell-based; settings: ningnanmycin at 100 ug/ml
creeping bentgrass = settings: field plots treated with ningnanmycin, 2010 and 2011
[8] = test system: Ophiosphaerella herpotricha (spring dead spot); assay: Preliminary in vitro experiment; format: cell-based
[9] = test system: M. griesea (turf gray leaf pot); assay: Preliminary in vitro experiment; format: cell-based

CNCC(=O)NC(CO)C(=O)NC1C(C(N)=O)OC(n2ccc(N)nc2=O)C(O)C1O [ningnanmycin, 4-sarcosinamido-L-serinamido-4-deoxy-β-D-pyranoglucuronamido]
EC50 (Sclerotinia homoeocarpa; 72 h, isolate 761SHME, radial growth after 72 h, mean of two assays): 0.02 µg/mL (≈ 0.0451 µM)
EC50 (Sclerotinia homoeocarpa; 72 h, isolate LWC 27, radial growth after 72 h, mean of two assays): 0.01 µg/mL (≈ 0.0226 µM)
EC50 (Sclerotinia homoeocarpa; 72 h, isolate PST4, radial growth after 72 h, mean of two assays): 0.01 µg/mL (≈ 0.0226 µM)
EC50 (Sclerotinia homoeocarpa; read-out: mean EC50, mean of three isolates): 0.01 µg/mL (≈ 0.0226 µM)
EC50 (Colletotrichum cereale; 168 h, isolate ABR1, radial growth after seven days, mean of two assays): 0.36 µg/mL (≈ 0.812 µM)
EC50 (Colletotrichum cereale; 168 h, isolate ABR12, radial growth after seven days, mean of two assays): 0.24 µg/mL (≈ 0.541 µM)
EC50 (Colletotrichum cereale; read-out: mean EC50, mean of two isolates): 0.3 µg/mL (≈ 0.677 µM)
Acute toxicity Dermal LD50 (rat [1]): >2,000 mg/Kg mg/kg
adverse effects in non-target organisms (earthworms): no adverse effects were observed
Turf quality (anthracnose (C. cereale); Ningnanmycin 10WP 0.08 g/m^2, 7 d interval, Aug. 8, 2010): 5
Turf quality (anthracnose (C. cereale); Ningnanmycin 10WP 0.08 g/m^2, 7 d interval, Aug. 15, 2010): 4
Turf quality (anthracnose (C. cereale); Ningnanmycin 10WP 0.15 g/m^2, 7 d interval, Aug. 8, 2010): 5
Turf quality (anthracnose (C. cereale); Ningnanmycin 10WP 0.15 g/m^2, 7 d interval, Aug. 15, 2010): 5
Turf quality (anthracnose (C. cereale); Ningnanmycin 10WP 0.15 g/m^2, 10 d interval, Aug. 8, 2010): 5
Turf quality (anthracnose (C. cereale); Ningnanmycin 10WP 0.15 g/m^2, 10 d interval, Aug. 15, 2010): 4
Turf quality (anthracnose (C. cereale); Ningnanmycin 10WP 0.30 g/m^2, 10 d interval, Aug. 8, 2010): 5
Turf quality (anthracnose (C. cereale); Ningnanmycin 10WP 0.30 g/m^2, 10 d interval, Aug. 15, 2010): 4
Turf quality (anthracnose (C. cereale); Ningnanmycin 10WP 0.30 g/m^2, 14 d interval, Aug. 8, 2010): 4
Turf quality (anthracnose (C. cereale); Ningnanmycin 10WP 0.30 g/m^2, 14 d interval, Aug. 15, 2010): 4
anthracnose control (in words) (anthracnose (C. cereale); 0.15 g/m^2, 7-day interval): satisfactory level of control
anthracnose control (in words) (anthracnose (C. cereale); 0.15 g/m^2, 14-day interval): lowest suppression of anthracnose but still provided significant suppression compared to the untreated
anthracnose control (in words) (anthracnose (C. cereale); 0.30 g/m^2, 7-day interval): highest level of anthracnose control
anthracnose control (in words) (anthracnose (C. cereale); 0.30 g/m^2, 14-day interval): lowest suppression of anthracnose but still provided significant suppression compared to the untreated
Anthracnose severity (%) (anthracnose (C. cereale); Ningnanmycin 10WP 0.08 g/m^2, 7 d interval, Aug. 1, 2011): 16%
Anthracnose severity (%) (anthracnose (C. cereale); Ningnanmycin 10WP 0.08 g/m^2, 7 d interval, Aug. 8, 2011): 4%
Anthracnose severity (%) (anthracnose (C. cereale); Ningnanmycin 10WP 0.08 g/m^2, 7 d interval, Aug. 15, 2011): 15%
Anthracnose severity (%) (anthracnose (C. cereale); Ningnanmycin 10WP 0.08 g/m^2, 7 d interval, Jul. 25, 2011): 20%
Anthracnose severity (%) (anthracnose (C. cereale); Ningnanmycin 10WP 0.15 g/m^2, 7 d interval, Aug. 1, 2011): 9%
Anthracnose severity (%) (anthracnose (C. cereale); Ningnanmycin 10WP 0.15 g/m^2, 7 d interval, Aug. 8, 2011): 3%
Anthracnose severity (%) (anthracnose (C. cereale); Ningnanmycin 10WP 0.15 g/m^2, 7 d interval, Aug. 15, 2011): 9%
Anthracnose severity (%) (anthracnose (C. cereale); Ningnanmycin 10WP 0.15 g/m^2, 7 d interval, Jul. 25, 2011): 17%
Anthracnose severity (%) (anthracnose (C. cereale); Ningnanmycin 10WP 0.15 g/m^2, 10 d interval, Aug. 1, 2011): 18%
Anthracnose severity (%) (anthracnose (C. cereale); Ningnanmycin 10WP 0.15 g/m^2, 10 d interval, Aug. 8, 2011): 8%
Anthracnose severity (%) (anthracnose (C. cereale); Ningnanmycin 10WP 0.15 g/m^2, 10 d interval, Aug. 15, 2011): 17%
Anthracnose severity (%) (anthracnose (C. cereale); Ningnanmycin 10WP 0.15 g/m^2, 10 d interval, Jul. 25, 2011): 21%
Anthracnose severity (%) (anthracnose (C. cereale); Ningnanmycin 10WP 0.30 g/m^2, 10 d interval, Aug. 1, 2011): 20%
Anthracnose severity (%) (anthracnose (C. cereale); Ningnanmycin 10WP 0.30 g/m^2, 10 d interval, Aug. 8, 2011): 3%
Anthracnose severity (%) (anthracnose (C. cereale); Ningnanmycin 10WP 0.30 g/m^2, 10 d interval, Aug. 15, 2011): 15%
Anthracnose severity (%) (anthracnose (C. cereale); Ningnanmycin 10WP 0.30 g/m^2, 10 d interval, Jul. 25, 2011): 16%
Anthracnose severity (%) (anthracnose (C. cereale); Ningnanmycin 10WP 0.30 g/m^2, 14 d interval, Aug. 1, 2011): 14%
Anthracnose severity (%) (anthracnose (C. cereale); Ningnanmycin 10WP 0.30 g/m^2, 14 d interval, Aug. 8, 2011): 6%
Anthracnose severity (%) (anthracnose (C. cereale); Ningnanmycin 10WP 0.30 g/m^2, 14 d interval, Aug. 15, 2011): 13%
Anthracnose severity (%) (anthracnose (C. cereale); Ningnanmycin 10WP 0.30 g/m^2, 14 d interval, Jul. 25, 2011): 20%
in vitro activity (P. aphanidermatum; concentration not given): no in vitro activity
activity against strains infecting turfgrass (P. aphanidermatum; ningnanmycin at 100 ppm): not been able to detect any activity
in vitro activity (Acidovorax aveane): did not show any in vitro activity
Sensitization (guinea pig): no
Irritation to eye (rabbit [2]): no
Aquatic plants EC50 (green algae): 12.0 mg/L (72 h)
Non-mammals, honey bee (honey bee): 200 μg/bee
efficacy against brown patch [3]: little to no efficacy
in vitro activity (Pantoea ananatis): did not show any in vitro activity
carcinogenicity, reproductive toxicity, developmental effects (mammals): no carcinogenicity, reproductive toxicity, or developmental effects have been observed
toxicity to mammals (mammals): very low toxicity
Fish LC50 (96 h) (Fish): >1,000 mg/L
in vitro activity (X. translucent; ningnanmycin at 100 ug/ml, preliminary study): did not show any in vitro activity
activity against strains infecting turfgrass (X. translucent; ningnanmycin at 100 ppm): not been able to detect any activity
in vitro activity [4]: showed in vitro activity
in vitro activity [5]: demonstrated in vitro activity
Acute toxicity Oral LD50 (rat [6]; female): 12,100 mg/kg (female)
Acute toxicity Oral LD50 (rat [6]; male): 6,810 mg/kg (male)
Irritation to skin (rabbit [7]): no
in vitro activity (Xanthomonas pruni): did not show any in vitro activity
plant growth regulator effects (creeping bentgrass): no plant growth regulator effects were observed
in vitro activity [8]: demonstrated in vitro activity
in vitro activity [9]: demonstrated in vitro activity
